Test system: normal human dermal fibroblasts (NHDF)
Assay: Gene expression in NHDF, full transcriptome analysis with Affymetrix U219 microarray
Assay type: cell-based
Conditions: NHDF
Experimental: In the present study, the transcriptional effects (modulation of gene expression) of compounds 1, 2, 3 and 4 were evaluated on normal human dermal fibroblasts (NHDF) under basal conditions.
More specifically, the comparative analysis of the different transcriptomic profiles was performed using an Affymetrix GeneAtlas platform and the human “full transcriptome” U219 chip, which includes 36,000 transcripts and variants.
Fibroblasts were seeded in 24-well plates and cultured in culture medium for 24 hours. The medium was then replaced by assay medium and cells were incubated for further 24 hours. The medium was replaced by assay medium containing or not (control) the test compounds at different concentrations and the cells were preincubated for 24 hours. All experimental conditions were performed in triplicate. At the end of incubation, the culture supernatants were removed and the cells were washed in a phosphate buffered saline (PBS) solution and immediately frozen at −80° C.
Before RNA extraction, the replicates were pooled. Total RNA was extracted from each sample using TriPure Isolation Reagent® according to the supplier's instructions. The amount and quality of total RNA were evaluated for all samples using capillary electrophoresis (Bioanalyzer 2100, Agilent technologies). From each RNA, a labeled and amplified anti-sens RNA (aRNA) was obtained using GeneChip 3′IVT PLUS Kit (Affymetrix). For each labeled and amplified aRNA sample the profiles were evaluated before and after fragmentation using capillary electrophoresis (Bioanalyzer 2100, Agilent technologies). Hybridization of fragmented aRNA onto Affymetrix® U219 chip (36,000 transcripts and variants) was performed in the GeneAtlas™ fluidics Affymetrix® hybridization station for 20 hours at 45° C. U219 chip was analyzed using the GeneAtlas™ Imaging station (Affymetrix®—resolution 2 μm) to generate fluorescence intensity data.
Expression Console and Quality controls: data were normalized with the Expression Console (Affymetrix®) software using RMA algorithm. Then a quality control of the labeling and the hybridization was performed. Hybridization and labeling steps successfully passed the quality controls for these experiments.
Data reduction, Excel file description: once normalized with Expression Console, data were transferred into a Microsoft Excel® file in order to go further into data reduction.
Calculation and tools were added in order to rank and sort data, and finally to support data interpretation. Detection thresholds in terms of fold change were defined and applied on normalized data.
Results are considered and presented or commented per gene (and not probe). A probe set is a collection of probes designed to interrogate a given sequence of a gene. For data interpretation, the most important relative expression value obtained with one probe is considered to be representative of the corresponding gene. The file contains the following data: • Relative expression (RE) for each sample, • Fold change calculation, • Gene information.

N[C@@H](CCCCNCC(F)(F)[C@]1(O)O[C@H](CO)[C@H](O)[C@H](O)[C@H]1O)C(=O)O [Compound 3]
effect of treatment of NHDF on lipid synthesis (transcriptional): up regulation of lipids synthesis, including fatty acids, cholesterol or ceramides
Fold change, ACOT1///ACOT2 (10 mg/ml, 24 h, vs control): 2.02
Fold change, APOD (10 mg/ml, 24 h, vs control): 0.44
Fold change, DHCR7 (10 mg/ml, 24 h, vs control): 2.95
Fold change, FADS2 (10 mg/ml, 24 h, vs control): 2.20
Fold change, GBAP1 (10 mg/ml, 24 h, vs control): 2.45
Fold change, HACD1 (10 mg/ml, 24 h, vs control): 2.63
Fold change, HMGCS1 (10 mg/ml, 24 h, vs control): 2.18
Fold change, LRP8 (10 mg/ml, 24 h, vs control): 2.98
Fold change, MVD (10 mg/ml, 24 h, vs control): 2.80
Fold change, NCOR1 (10 mg/ml, 24 h, vs control): 0.44
Fold change, NEU1 (10 mg/ml, 24 h, vs control): 3.17
Fold change, NPC1 (10 mg/ml, 24 h, vs control): 2.45
Fold change, PHLDB2 (10 mg/ml, 24 h, vs control): 2.14
Fold change, PHYH (10 mg/ml, 24 h, vs control): 2.37
Fold change, PLA2G15 (10 mg/ml, 24 h, vs control): 2.01
Fold change, PLA2G16 (10 mg/ml, 24 h, vs control): 2.30
Fold change, PRKAB2 (10 mg/ml, 24 h, vs control): 0.35
Fold change, PTGDS (10 mg/ml, 24 h, vs control): 2.50
Fold change, SOAT1 (10 mg/ml, 24 h, vs control): 2.08
Fold change, SPHK1 (10 mg/ml, 24 h, vs control): 2.18
Fold change, SREBF1 (10 mg/ml, 24 h, vs control): 2.16
Fold change, TXNRD1 (10 mg/ml, 24 h, vs control): 2.22
Fold change, VAC14 (10 mg/ml, 24 h, vs control): 2.10
Fold change, SCD (10 mg/ml, 24 h, vs control, Affymetrix probe set 11715561_s_at): 4.60
Fold change, SCD (10 mg/ml, 24 h, vs control, Affymetrix probe set 11715562_x_at): 4.82
Fold change, SCD (10 mg/ml, 24 h, vs control, Affymetrix probe set 11715563_s_at): 4.79
Fold change, G6PD (10 mg/ml, 24 h, vs control, Affymetrix probe set 11716292_a_at): 2.00
Fold change, G6PD (10 mg/ml, 24 h, vs control, Affymetrix probe set 11716293_x_at): 2.04
Fold change, INSIG1 (10 mg/ml, 24 h, vs control, Affymetrix probe set 11716338_a_at): 2.36
Fold change, INSIG1 (10 mg/ml, 24 h, vs control, Affymetrix probe set 11716339_a_at): 2.78
Fold change, PPT1 (10 mg/ml, 24 h, vs control, Affymetrix probe set 11716533_a_at): 2.40
Fold change, LSS (10 mg/ml, 24 h, vs control, Affymetrix probe set 11717620_a_at): 2.41
Fold change, EBP (10 mg/ml, 24 h, vs control, Affymetrix probe set 11717859_a_at): 2.52
Fold change, GBA///GBAP1 (10 mg/ml, 24 h, vs control, Affymetrix probe set 11719908_a_at): 2.30
Fold change, GM2A (10 mg/ml, 24 h, vs control, Affymetrix probe set 11719921_s_at): 2.39
Fold change, GM2A (10 mg/ml, 24 h, vs control, Affymetrix probe set 11719923_at): 2.09
Fold change, HSD17B14 (10 mg/ml, 24 h, vs control, Affymetrix probe set 11720588_a_at): 2.17
Fold change, SERINC2 (10 mg/ml, 24 h, vs control, Affymetrix probe set 11721046_a_at): 2.54
Fold change, TPP1 (10 mg/ml, 24 h, vs control, Affymetrix probe set 11725032_a_at): 2.23
Fold change, ME1 (10 mg/ml, 24 h, vs control, Affymetrix probe set 11726265_at): 2.41
Fold change, LSS (10 mg/ml, 24 h, vs control, Affymetrix probe set 11731324_a_at): 3.12
Fold change, GBA///GBAP1 (10 mg/ml, 24 h, vs control, Affymetrix probe set 11736100_a_at): 2.69
Fold change, CHKA (10 mg/ml, 24 h, vs control, Affymetrix probe set 11736285_a_at): 2.53
Fold change, CHKA (10 mg/ml, 24 h, vs control, Affymetrix probe set 11736286_a_at): 2.73
Fold change, ASAH1 (10 mg/ml, 24 h, vs control, Affymetrix probe set 11740582_a_at): 2.18
Fold change, PPT1 (10 mg/ml, 24 h, vs control, Affymetrix probe set 11742107_a_at): 2.25
Fold change, ASAH1 (10 mg/ml, 24 h, vs control, Affymetrix probe set 11743547_a_at): 2.16
Fold change, PCYT2 (10 mg/ml, 24 h, vs control, Affymetrix probe set 11744044_s_at): 2.15
Fold change, FADS1 (10 mg/ml, 24 h, vs control, Affymetrix probe set 11745459_a_at): 3.04
Fold change, LPCAT3 (10 mg/ml, 24 h, vs control, Affymetrix probe set 11746281_a_at): 2.48
Fold change, LDLR (10 mg/ml, 24 h, vs control, Affymetrix probe set 11746974_a_at): 2.37
Fold change, GM2A (10 mg/ml, 24 h, vs control, Affymetrix probe set 11747178_x_at): 2.24
Fold change, PCYT2 (10 mg/ml, 24 h, vs control, Affymetrix probe set 11747322_s_at): 2.72
Fold change, LDLR (10 mg/ml, 24 h, vs control, Affymetrix probe set 11748045_x_at): 2.10
Fold change, SERINC2 (10 mg/ml, 24 h, vs control, Affymetrix probe set 11748053_x_at): 2.92
Fold change, TM7SF2 (10 mg/ml, 24 h, vs control, Affymetrix probe set 11748279_s_at): 2.25
Fold change, GBA///GBAP1 (10 mg/ml, 24 h, vs control, Affymetrix probe set 11748292_a_at): 2.58
Fold change, TPP1 (10 mg/ml, 24 h, vs control, Affymetrix probe set 11748341_a_at): 2.60
Fold change, TPP1 (10 mg/ml, 24 h, vs control, Affymetrix probe set 11748342_x_at): 2.34
Fold change, EBP (10 mg/ml, 24 h, vs control, Affymetrix probe set 11749332_x_at): 2.48
Fold change, ABHD4 (10 mg/ml, 24 h, vs control, Affymetrix probe set 11749343_a_at): 2.28
Fold change, ABHD4 (10 mg/ml, 24 h, vs control, Affymetrix probe set 11749376_a_at): 2.13
Fold change, ME1 (10 mg/ml, 24 h, vs control, Affymetrix probe set 11750913_a_at): 2.67
Fold change, GBA (10 mg/ml, 24 h, vs control, Affymetrix probe set 11750975_x_at): 2.34
Fold change, GBA///GBAP1 (10 mg/ml, 24 h, vs control, Affymetrix probe set 11751085_a_at): 2.84
Fold change, GBA (10 mg/ml, 24 h, vs control, Affymetrix probe set 11751086_x_at): 2.57
Fold change, GBA///GBAP1 (10 mg/ml, 24 h, vs control, Affymetrix probe set 11751098_a_at): 2.57
Fold change, DHCR24 (10 mg/ml, 24 h, vs control, Affymetrix probe set 11751337_a_at): 2.29
Fold change, DHCR24 (10 mg/ml, 24 h, vs control, Affymetrix probe set 11751338_x_at): 2.44
Fold change, G6PD (10 mg/ml, 24 h, vs control, Affymetrix probe set 11752486_a_at): 3.18
